Cytotoxicity data for 102 compounds are collected here from ChEMBL document CHEMBL3507680, “University of Dundee, Gates Library screen for HepG2 cell viability”.

Structures are written as SMILES.

This series can be described thus: Human HepG2 cell viability assay in 384 well format. Details: dose 125 nL, time 70.5 hour; concentration not given beside the values. The conditions noted are these: HepG2 cells, read-out: Inhibition. The class given is toxicity, cell-based.
As for `COc1ccc(/C=C/CN2CCCC3(C2)CN(C)C(=O)O3)cc1` (configuration not stated), the cytotoxicity at 70.5 h is 11.6%.

`CCCC(=O)N1CCC2(CC1)CN(Cc1cccc(C)n1)C(=O)CO2`: the cytotoxicity at 70.5 h is 0.856%.

In the case of `CNC(=O)NC1CC2(CCNCC2)c2ccc(C)cc21` (configuration not stated), the cytotoxicity at 70.5 h stood at 18.2%.

`Cc1c(Br)cnn1CCC(=O)N(C)Cc1c(Cl)cnn1C`: the cytotoxicity at 70.5 h is 30.7%.

In the case of `CCn1cc(CN(C)S(=O)(=O)N2CCCC2c2ccco2)cn1` (configuration not stated), the cytotoxicity at 70.5 h was -1.42%.

As to `Cc1ccccc1COCCOCn1c(C)cc(=O)[nH]c1=O`, the cytotoxicity at 70.5 h is -4.1%.

On to `FC(F)(F)c1cccc(OC2CCN(Cc3c[nH]cn3)CC2)c1`, for which the cytotoxicity at 70.5 h is 45.6%.

For the compound `Cc1ccc2c(c1)C(=O)NCC1(CCN(C(=O)c3ccnn3C)CC1)O2`, the cytotoxicity at 70.5 h was -4.65%.

Take `CN1CCN(CCCNC(=O)c2nc3ccccc3c(=O)[nH]2)CC1`: the cytotoxicity at 70.5 h was -19.4%.

On to `CC(C)(C)n1ncc2c(=O)[nH]c(NC3CC=CC3)nc21`, for which the cytotoxicity at 70.5 h was 0.3%.

For the compound `Cc1nc(C(=O)N(C)C)nn1-c1ccccc1C(C)C`, the cytotoxicity at 70.5 h was 0.366%.

For the compound `Cc1nn(C)c2cnn(CCCNS(=O)(=O)Cc3ccccc3)c12`, the cytotoxicity at 70.5 h worked out at 10.4%.

For the compound `Cc1noc(C)c1CN1CCOCC12CCN(c1nccs1)CC2`, the cytotoxicity at 70.5 h is -8.54%.

`COc1ccncc1NC(=O)C1(c2ccc(F)cc2)CCC1`: the cytotoxicity at 70.5 h is -6.62%.

Take `Cc1ccc(-c2nc(C3CCN(C(=O)c4ccn(C)n4)CC3)no2)cn1`: the cytotoxicity at 70.5 h was -10.5%.

For the compound `COc1ccc(CNC(C)c2cnc3cc(C)nn3c2C)cc1` (configuration not stated), the cytotoxicity at 70.5 h is -2.4%.

As to `CCCc1nnc(N2CCN(C3CCCC3)CC2)o1`, the cytotoxicity at 70.5 h is -14.3%.

On to `COCCN1CCCC1c1cccc2c1OCCO2` (configuration not stated), for which the cytotoxicity at 70.5 h came to 7.8%.

As for `CCN(CC1CCCO1)S(=O)(=O)c1cc(NC(C)=O)ccc1C` (configuration not stated), the cytotoxicity at 70.5 h came to 6.44%.

Take `O=C(CNC(=O)c1ccccc1I)NCc1ccccc1F`: the cytotoxicity at 70.5 h was -10.2%.

With `CC(=O)N1CCCN(C(=O)NCCc2cc(Cl)cc(Cl)c2)CC1`, the cytotoxicity at 70.5 h was -6.77%.

For `Cc1ccc2c(c1)C1(CCN(S(C)(=O)=O)CC1)CN2C(=O)N(C)C`, the cytotoxicity at 70.5 h is 4.29%.

`Cc1nc(C2CN(C)CCO2)cc(N2CCSCC2)n1` (configuration not stated): the cytotoxicity at 70.5 h is 26.1%.

For the compound `CNC(=O)[C@H]1C[C@@H]2CCN(Cc3ccc4c(c3)OCO4)C[C@@H]2O1`, the cytotoxicity at 70.5 h was -7.08%.

Regarding `O=C(NCC1(O)COCCN(Cc2cccc(O)c2)C1)c1cnccn1` (configuration not stated), the cytotoxicity at 70.5 h is -3.85%.

In the case of `CCCC(O)CN1CC(C)(C)CN(C(=O)c2ccccc2)CC1=O` (configuration not stated), the cytotoxicity at 70.5 h was -10.1%.

Take `COc1ccc(CN2CCC3(CC2)CC(CC(=O)NC(C)C)CO3)cc1` (configuration not stated): the cytotoxicity at 70.5 h is -14.4%.

As for `Cn1cc(CNCCc2nccs2)c(-c2cccnc2)n1`, the cytotoxicity at 70.5 h is -8.44%.

On to `Cc1cnn(CCNC(C)c2nnc(-c3ccccc3)o2)c1` (configuration not stated), for which the cytotoxicity at 70.5 h is -7.05%.

Turning to `Cc1c(C)n(-c2ccccn2)c2nc3c(c(N)c12)CCCCC3`, the cytotoxicity at 70.5 h was -10.8%.

`CN1CCN(Cc2cn3c(n2)CN(C2CCOCC2)CC3)CC1`: the cytotoxicity at 70.5 h is -6.56%.

On to `CN(CCCc1cnn(C)c1)C(=O)C1CCOC1` (configuration not stated), for which the cytotoxicity at 70.5 h stood at 12.6%.

Consider `CSc1ccccc1C(=O)C1CCCN(Cc2ccccn2)C1` (configuration not stated), for which the cytotoxicity at 70.5 h is -2.76%.

As for `COCC(C)(O)CNC(=O)COc1ccccc1OC` (configuration not stated), the cytotoxicity at 70.5 h is -3.09%.

Turning to `CC(C)Cc1ncc2c(n1)CN(C(=O)Cn1c(=O)oc3ccccc31)C2`, the cytotoxicity at 70.5 h was -14.5%.

For `Cc1nnsc1C(=O)NCCNS(=O)(=O)c1cccs1`, the cytotoxicity at 70.5 h was found to be 6.87%.

As for `Cn1cnc2c1C(COCC1CC1)CN(C(=O)c1cccs1)C2` (configuration not stated), the cytotoxicity at 70.5 h stood at 8.88%.

Turning to `CC(C)c1ncc(CN2C[C@@H](CN3CCC(O)CC3)[C@@H](CO)C2)cn1`, the cytotoxicity at 70.5 h was 37.8%.

Take `COC(=O)c1ccc(N2CCN(C(=O)c3cc(C)no3)C(C)C2)cc1` (configuration not stated): the cytotoxicity at 70.5 h was -12%.

For the compound `COc1ccc(CN(C)Cc2nc3c(cnn3C)c(=O)[nH]2)cc1OC`, the cytotoxicity at 70.5 h is -6.1%.

As for `O=C(CCS(=O)(=O)c1ccccc1)NC1CCOC2(CCOCC2)C1` (configuration not stated), the cytotoxicity at 70.5 h is -8.45%.

As for `CCn1ccnc1C1CCN(c2ncnc3ccsc23)CC1`, the cytotoxicity at 70.5 h was 7.55%.

With `CC(C)c1cnc(CN(C)C2CCN(CCc3ccccn3)C2)o1` (configuration not stated), the cytotoxicity at 70.5 h amounted to 13.1%.

For the compound `Cc1nn(C)c(C)c1CCC(=O)OCC(=O)N1CCc2sccc2C1`, the cytotoxicity at 70.5 h was determined as 20.5%.

`CC(=O)N1CCN(C(=O)C2CCN(c3cccnn3)C2)CC1` (configuration not stated): the cytotoxicity at 70.5 h is -0.877%.

Turning to `O=S(=O)(CCO)CCc1ccccc1Cl`, the cytotoxicity at 70.5 h was -9.35%.

In the case of `Cc1noc(C2CCC3(CCN(C(=O)c4cnn(C)c4)CC3)O2)n1` (configuration not stated), the cytotoxicity at 70.5 h was -10.3%.

In the case of `O=C1Nc2ccccc2C12CCN(Cc1cccs1)CC2`, the cytotoxicity at 70.5 h was -2.74%.

As to `CC(C)c1cc(C(=O)NCCn2nnc3ccccc32)no1`, the cytotoxicity at 70.5 h was 41.3%.

As to `COCC(=O)N(C)Cc1ccc(OCc2cccs2)cc1`, the cytotoxicity at 70.5 h is -6.51%.

`Cc1nc(-c2ccnc(N3CCNCC3)n2)no1`: the cytotoxicity at 70.5 h is -1.44%.

On to `Cc1oc(-c2ccsc2)nc1CC(=O)NCC(C)(C)CN(C)C`, for which the cytotoxicity at 70.5 h was -9.09%.

Turning to `CCc1nc(N)sc1C(=O)N1CCC(c2cc(O)nc(C)n2)CC1`, the cytotoxicity at 70.5 h came to 20.6%.

For the compound `COc1ccc(CCN2CCCC(n3cncn3)C2)cc1` (configuration not stated), the cytotoxicity at 70.5 h was -10.1%.

With `O=C1N(c2ccccc2)Cc2nc(=O)[nH]n21`, the cytotoxicity at 70.5 h was -27.8%.

As for `CC(=O)N1CCc2nc(-c3ccc(F)cc3)nc(NC(C)C)c2CC1`, the cytotoxicity at 70.5 h was found to be 7.5%.

Regarding `Cn1ccnc1CN1CCCN(C(=O)COC2CCCC2)CC1`, the cytotoxicity at 70.5 h is -2.98%.

As to `CC1(C(=O)N2CCN(c3ncccn3)CC2)CNCCO1` (configuration not stated), the cytotoxicity at 70.5 h was -8.07%.

As to `CCS(=O)(=O)NCCN1CCc2ccc(F)cc2C1C` (configuration not stated), the cytotoxicity at 70.5 h is -4.91%.

As for `Cc1ccc2oc(SCC(=O)NC(C)(C)C)nc2n1`, the cytotoxicity at 70.5 h was -6.39%.

Consider `Cc1cnc2cc(C3CCN(C(=O)c4ccncc4)CC3)[nH]c2n1`, for which the cytotoxicity at 70.5 h was -12.8%.

Turning to `Cc1ccc(C)c(Sc2nccn(C)c2=O)c1`, the cytotoxicity at 70.5 h was -10.6%.

As to `CCS(=O)(=O)CC(C)N(C)C(=O)NCCc1cccc(F)c1F` (configuration not stated), the cytotoxicity at 70.5 h is -5.89%.

Take `O=C(NCCc1cccs1)N1CCCC1CCCO` (configuration not stated): the cytotoxicity at 70.5 h was -9.42%.

As for `Cc1ncc2c(n1)CN(CC1CCCCO1)CC2` (configuration not stated), the cytotoxicity at 70.5 h was 5.6%.

On to `CC(NC(=O)N1CCNC(=O)CC1)c1ccc(C(F)(F)F)cc1` (configuration not stated), for which the cytotoxicity at 70.5 h was -19.2%.

`O=C(NCc1nncn1C1CC1)c1ccc(F)c(COCC2CC2)c1`: the cytotoxicity at 70.5 h was determined as 7.64%.

`OC1CN(Cc2cccc(N3CCOCC3)c2)Cc2ccccc21` (configuration not stated): the cytotoxicity at 70.5 h is -0.922%.

Turning to `Cc1nnc(SCCNC(=O)Cn2cnc3ccccc3c2=O)s1`, the cytotoxicity at 70.5 h is -4.19%.

Consider `N#Cc1ccc(CNCCc2cc(F)cc3c2OCOC3)cc1`, for which the cytotoxicity at 70.5 h stood at 7.73%.

For `CCC(CC)NC(=O)c1cccnc1N1CCCC1c1ccccn1` (configuration not stated), the cytotoxicity at 70.5 h worked out at 16.4%.

In the case of `O=C(c1ccnc(-n2cnnc2)c1)N1CCCC2(CCOC2)C1` (configuration not stated), the cytotoxicity at 70.5 h was -2.19%.

Turning to `CC1CCCCN1C(=O)Cn1cnc(C#N)n1` (configuration not stated), the cytotoxicity at 70.5 h was -6.77%.

For the compound `CC(C)(C)OC(=O)NC1(c2noc(-c3ccco3)n2)CCC1`, the cytotoxicity at 70.5 h was -9.18%.

`Cc1ccc(C(=O)Nc2ccccc2F)n1C`: the cytotoxicity at 70.5 h was -11.5%.

`CCCSc1ncc(Cl)c(C(=O)NC(CCSC)C(=O)O)n1` (configuration not stated): the cytotoxicity at 70.5 h was -7.81%.

Consider `O=C(O)c1csc(S(=O)(=O)N2CCCc3cc(OC(F)F)ccc32)c1`, for which the cytotoxicity at 70.5 h is -10.7%.

Take `Cc1sc(-c2ccco2)nc1C(=O)N(CC(N)=O)C1CCCC1`: the cytotoxicity at 70.5 h was -2.05%.

In the case of `COCCN1CCC(Nc2ccc(C#N)cc2F)CC1`, the cytotoxicity at 70.5 h is -13.7%.

Consider `CC(C)(C)c1cc(NC(=O)CN2CCCC2Cn2cccn2)on1` (configuration not stated), for which the cytotoxicity at 70.5 h was 1.91%.

On to `CCc1ccc2nc(C)cc(C(=O)NC3CCC(=O)N(C)C3)c2c1` (configuration not stated), for which the cytotoxicity at 70.5 h is -4.56%.

In the case of `O=C(NCc1cc[nH]n1)NCC(O)c1ccccc1F` (configuration not stated), the cytotoxicity at 70.5 h amounted to 0.0915%.

For the compound `O=C(O)C1CN(Cc2cnc(C3CCCCC3)nc2)CCO1` (configuration not stated), the cytotoxicity at 70.5 h is 17.1%.

For the compound `COc1ccc(OC)c(C2SCC(=O)Nc3n[nH]cc32)c1` (configuration not stated), the cytotoxicity at 70.5 h is -9.28%.

On to `NC(=O)C1CCN(CCc2ccc(NCc3cccnc3)cc2)CC1`, for which the cytotoxicity at 70.5 h amounted to 4.26%.

For the compound `Cc1ccccc1OCn1ccc(C(=O)NCCN2CCOCC2)n1`, the cytotoxicity at 70.5 h was -12.2%.

Take `CN1CCC2(CCCN(S(=O)(=O)c3ccc(-c4cnco4)s3)C2)C1` (configuration not stated): the cytotoxicity at 70.5 h was -6.76%.

As to `COc1cccc(CC2CCCN2CCCC#N)c1` (configuration not stated), the cytotoxicity at 70.5 h is -1.21%.

Take `COc1ccc(C(=O)NC[C@H]2COCc3nc4cc(C)ccc4n32)cc1`: the cytotoxicity at 70.5 h is -4.37%.

On to `CCSc1cncc(N2CCC(NC(=O)C3CCCCC3)CC2)n1`, for which the cytotoxicity at 70.5 h was -13.5%.

For `c1nc2c(c(N3CCOC(Cn4cncn4)C3)n1)CCC2` (configuration not stated), the cytotoxicity at 70.5 h was -7.61%.

Take `CCn1c(C)nnc1CN(C)C1CCN(Cc2nnc(C3CC3)o2)C1` (configuration not stated): the cytotoxicity at 70.5 h came out at 2.54%.

As to `CCC1c2ccsc2CCN1C(=O)NCc1ccccn1` (configuration not stated), the cytotoxicity at 70.5 h was -6.47%.

In the case of `COCC1CN(C(=O)Cc2cccs2)Cc2nnn(C)c21` (configuration not stated), the cytotoxicity at 70.5 h was -14.9%.

For the compound `CN(C)Cc1cnc2n1CCN(C(=O)NC1CCCC1)CC2`, the cytotoxicity at 70.5 h was -1.58%.

As to `COc1cccc(N2CCN(Cc3ncc[nH]3)CC2=O)c1`, the cytotoxicity at 70.5 h is -10.6%.

As to `NCCCn1nc(C(F)(F)F)c2c1CCC2`, the cytotoxicity at 70.5 h is -7.21%.

For `CN(C)CCCN(C)c1nccc(N2CCN[C@H]3CS(=O)(=O)C[C@H]32)n1`, the cytotoxicity at 70.5 h was determined as 23.2%.

As for `CCNC(=O)[C@@H]1CCCN1C1(C(=O)NC)CCCCC1`, the cytotoxicity at 70.5 h worked out at 4.64%.

For the compound `CN1CCCC1c1ccnc(C(=O)N(C)C2CCCCC2)c1` (configuration not stated), the cytotoxicity at 70.5 h was -11.9%.

As for `CCc1nc(C(=O)N2CCN(Cc3ccc(Cl)cc3)CC2)c[nH]1`, the cytotoxicity at 70.5 h is -2.01%.

With `Cn1cc(C[C@H]2[C@@H](O)CCN2C(=O)C2CC=CC2)cn1`, the cytotoxicity at 70.5 h was 7.47%.
